In patent US10993983B2, “Cyclic peptide epitopes and small-molecule mimics for inducing autophagy” (TRUSTEES OF TUFTS COLLEGE, priority 2016, dated 2021):
Marks after values point to notes of the source that are not given here. Where no end group is shown, it is not given here. [ ]: non-standard residue; d: D form.

Tests used:
[1] = tested on: p62; experiment: p62 degradation assay (p62/actin immunoblot);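 for Activity (μM) 10, p62/actin assay activity: HeLa cells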;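 for Activity (μM) 100, p62/actin assay activity: HeLa cells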;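 for Activity (μM) 20, p62/actin assay activity: HeLa cells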;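 for Activity (μM) 30, p62/actin assay activity: HeLa cells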;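 for Activity (μM) 50, p62/actin assay activity: HeLa cells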; type: cell-based; parameters: key: −: activity not reported; 0: decreased vs. WT; +: similar to WT; ++: modest increase vs. WT; +++: significant increase vs. WT; conditions: for Activity (μM) 30, p62/actin assay activity: 30 μM; for Activity (μM) 50, p62/actin assay activity: 50 μM; for Activity (μM) 100, p62/actin assay activity: 100 μM; for Activity (μM) 10, starred cell, p62/actin assay activity: Table 8, 10 μM marked * (footnote: data taken at 20 instead of 30 μM); for Activity (μM) 5, p62/actin assay activity: 5 μM; for Activity (μM) 10, p62/actin assay activity: 10 μM
Protocol: (§1) Cells were treated with peptide in OPTI-MEM (Thermo Scientific) acidified with 0.15% (v/v) 6N HCl for 3 hour. Cells were rinsed with Dulbecco's phosphate buffered saline (PBS) and lysed in lysis buffer (20 mM HEPES, 150 mM NaCl, 1 mM EDTA, 1% Triton X-100, protease inhibitor cocktail (Roche) on ice for 1 hour. Cell lysates were centrifuged at 16,000 g for 10 min at 4° C. and analyzed by SDS-PAGE and transferred to PVDF membranes. The membranes were blocked 5% non-fat dry milk (NFDM) in PBST (PBS+0.05% Tween-20) for 1 hour, then incubated overnight at 4° C. with primary antibody in 5% NFDM in PBST. The blots were washed with PBST and incubated with HRP-conjugated secondary antibodies diluted in 5% NFDM in PBST for 1 hour at room temperature. Membranes were washed with PBST and visualized with SuperSignal West Pico Chemiluminescent Substrate (Thermo Scientific). Semi-quantitative results were obtained by noting the lowest concentration at which both p62 degradation and LC3-I to LC3-II conversion were observed.
(§2) Compounds 1-10 were evaluated using the assays described in Examples 4 and 5. Activity for each compound was measured in the p62 degradation assay and the LC3 marker assay as described herein. The activity at each concentration of peptide is given as, for example, (0/+) where 0 would be the p62/actin assay activity and + would be the LC3 assay activity.

[2] = tested on: LC3; experiment: LC3 marker assay (LC3-I to LC3-II conversion immunoblot);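 for Activity (μM) 10, LC3 assay activity: HeLa cells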;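 for Activity (μM) 100, LC3 assay activity: HeLa cells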;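 for Activity (μM) 20, LC3 assay activity: HeLa cells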;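 for Activity (μM) 30, LC3 assay activity: HeLa cells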;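 for Activity (μM) 50, LC3 assay activity: HeLa cells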; type: cell-based; parameters: key: −: activity not reported; 0: decreased vs. WT; +: similar to WT; ++: modest increase vs. WT; +++: significant increase vs. WT; conditions: for Activity (μM) 30, LC3 assay activity: 30 μM; for Activity (μM) 50, LC3 assay activity: 50 μM; for Activity (μM) 100, LC3 assay activity: 100 μM; for Activity (μM) 10, starred cell, LC3 assay activity: Table 8, 10 μM marked * (footnote: data taken at 20 instead of 30 μM); for Activity (μM) 5, LC3 assay activity: 5 μM; for Activity (μM) 10, LC3 assay activity: 10 μM
Protocol: as §1, §2

[3] = Table 7, control compound T25, first symbol
[4] = Table 7, control compound T25, second symbol
[5] = Table 8, control compound T25, first symbol
[6] = Table 8, control compound T25, second symbol
[7] = Table 3, control vehicle, first symbol
[8] = Table 3, control vehicle, second symbol

Sequence	Activity (μM) 30, p62/actin assay activity [1, 3]	Activity (μM) 50, p62/actin assay activity [1, 3]	Activity (μM) 100, p62/actin assay activity [1, 3]	Activity (μM) 30, LC3 assay activity [2, 4]	Activity (μM) 50, LC3 assay activity [2, 4]	Activity (μM) 100, LC3 assay activity [2, 4]	Activity (μM) 30, p62/actin assay activity [1, 5]	Activity (μM) 50, p62/actin assay activity [1, 5]	Activity (μM) 100, p62/actin assay activity [1, 5]	Activity (μM) 30, LC3 assay activity [2, 6]	Activity (μM) 50, LC3 assay activity [2, 6]	Activity (μM) 100, LC3 assay activity [2, 6]	other results
VCNATCHIWH [Compound 27]	0/0	0/0	0/0	0/0	0/0	0/0	–	–	–	–	–	–	–
VCNATCHIWH [Compound 28]	0/0	0/0	+++	0/0	0/0	0	–	–	–	–	–	–	–
VCNATCHIWH [Compound 29]	0/0	+	++	0/0	0	0	–	–	–	–	–	–	–
VCNATCHIWH [Compound 30]	0/0	0/0	+	0/0	0/0	0	0/0	0/0	0/0	0/0	0/0	0/0	Activity (μM) 10, starred cell, p62/actin assay activity ([1]; first symbol): 0/0*; Activity (μM) 10, starred cell, LC3 assay activity ([2]; second symbol): 0/0*
VCNATCHIWH [Compound 31]	0/0	0/0	0/0	0/0	0/0	0/0	–	–	–	–	–	–	–
VCNATCHIWH [Compound 32]	++	++	++	0	0	0	–	–	–	–	–	–	–
VCNATCHIWH [Compound 33]	–	–	–	–	–	–	+++	+++/+++	+++/+++	++	+++/+++	+++/+++	Activity (μM) 5, p62/actin assay activity [1, 5]: 0/0; Activity (μM) 10, p62/actin assay activity [1, 5]: 0; Activity (μM) 5, LC3 assay activity [2, 6]: 0/0; Activity (μM) 10, LC3 assay activity [2, 6]: +
VCNATCHIWH [Compound 34]	–	–	–	–	–	–	+	+++/+++	+++/+++	++	+++/+++	+++/+++	Activity (μM) 5, p62/actin assay activity [1, 5]: 0/0; Activity (μM) 10, p62/actin assay activity [1, 5]: 0/0; Activity (μM) 5, LC3 assay activity [2, 6]: 0/0; Activity (μM) 10, LC3 assay activity [2, 6]: 0/0
VCNATCHIWH [Compound 35]	–	–	–	–	–	–	0	+++	+++	+	++	++	Activity (μM) 10, p62/actin assay activity [1, 5]: 0/0; Activity (μM) 10, LC3 assay activity [2, 6]: 0/0
VCNATCHIWH [Compound 36]	–	–	–	–	–	–	–	0/0	0/0	–	0/0	0/0	–
VCNATCHIWH [Compound 44]	–	–	–	–	–	–	–	0/0	0/0	–	0/0	0/0	–
VCNATCHIWH [Compound 48]	–	–	–	–	–	–	–	+++/+++	+++/+++	–	+++/+++	+++/+++	–
VCNATCHIWH [Compound 49]	–	–	–	–	–	–	–	+++/+++	+++/+++	–	+++/+++	+++/+++	–
VCNATCHIWH [Compound 50]	–	–	–	–	–	–	–	++	++	–	+++	+++	–
VCNATCHIWH [Compound 51]	–	–	–	–	–	–	–	+++/+++	+++/+++	–	+++/+++	+++/+++	–
VCNATCHIWR (V[dC]NAT[dC]HIWR; cysteine pairing not given here) [Compound 38]	–	–	–	–	–	–	–	0/0	0/0	–	0/0	0/0	–
VCNATCRIWR (V[dC]NAT[dC]RIWR; not fully specified (C-terminus); cysteine pairing not given here) [Compound 42]	–	–	–	–	–	–	–	0/0	0/0	–	0/0	0/0	–
VWNATCHIWC [Compound 59]	–	–	–	–	–	–	0/0	–	–	0/0	–	–	Activity (μM) 5, p62/actin assay activity [1, 5]: 0/0; Activity (μM) 10, p62/actin assay activity [1, 5]: 0/0; Activity (μM) 5, LC3 assay activity [2, 6]: 0/0; Activity (μM) 10, LC3 assay activity [2, 6]: 0/0
VWNATCHIWC [Compound 65]	–	–	–	–	–	–	–	0/0	–	–	0/0	–	–
VWNATFHIWH (not fully specified (N-terminus, C-terminus)) [Compound 5, likely pa-10mer]	–	–	–	–	–	–	0/0	0/0	0/0	0/0	0/0	0/0	Activity (μM) 10, p62/actin assay activity ([1]; Table 3, control vehicle, first symbol of cell): 0/0; Activity (μM) 20, p62/actin assay activity ([1]; 20 μM, Table 3, control vehicle, first symbol): 0/0; Activity (μM) 50, p62/actin assay activity [1, 7]: 0; Activity (μM) 100, p62/actin assay activity [1, 7]: +/+; Activity (μM) 10, starred cell, p62/actin assay activity ([1]; first symbol): 0/0*; Activity (μM) 10, LC3 assay activity ([2]; Table 3, control vehicle, second symbol of cell): 0/0; Activity (μM) 20, LC3 assay activity ([2]; 20 μM, Table 3, control vehicle, second symbol): 0/0; Activity (μM) 50, LC3 assay activity [2, 8]: +; Activity (μM) 100, LC3 assay activity [2, 8]: +/+; Activity (μM) 10, starred cell, LC3 assay activity ([2]; second symbol): 0/0*
